Here are results for 21 compounds from patent US20240067651A1 (Biohaven Therapeutics Ltd., priority 2019, published 2024).

One series can be described thus: Plasma Stability. Conditions: % remaining at 1 h in human plasma. Format: in vitro ADME, human. Summed up: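 Compounds incubated at 1 μM in fresh human plasma for 1 hour at 37° C, then protein-precipitated with acetonitrile/formic acid containing internal standard. Remaining parent measured by LC-MS/MS in triplicate, expressed as percent of control remaining.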
Series [1] can be described thus: Stability in Simulated Gastric Fluid (SGF). Conditions: % remaining at 1 h in simulated gastric fluid. Set-up: key: % parent compound remaining relative to 0-minute sample. Format: in vitro ADME. An outline of the steps:
(§1)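 Compound at 2 μg/mL final was incubated at 37 °C with shaking in SGF with pepsin (pH 1.2) or SIF with pancreatin (pH 6.8), sampled from 0 to 60 min. After acetonitrile precipitation, LC-MS/MS gave % parent remaining vs 0 min; half-life came from ln(% remaining) vs time.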

Series [2] is described as follows: Stability in Simulated Intestinal Fluid (SIF). Set-up: key: % parent compound remaining relative to 0-minute sample. In kind it is in vitro ADME. Conditions: % remaining at 1 h in simulated intestinal fluid. An outline of the steps:
as §1

Series [3] can be described thus: Caco-2 Permeability Assay. In kind it is in vitro ADME, human. Conditions: human, Caco-2, pH 7.4, Caco-2 monolayer. An excerpt: The compounds of the invention may be tested for biological activity as MPO inhibitors by methods known to those skilled in the art. In addition, methods such as, for example, a Caco-2 assay, may be used to test the bioavailability of the compounds of the invention. A description of a Caco-2 permeability assay is as follows:
• The Caco-2 monolayer is widely used across the pharmaceutical industry as an in vitro model of the human small intestinal mucosa to predict the absorption of orally administered drugs.^1-4 • The Caco-2 cell model mimics processes such as transcellular transport, paracellular transport, and some aspects of efflux and active transport. • Readout: Papp (A→B), Papp (B→A), Efflux ratio, % Recovery • Controls: with and without Pgp inhibitor; Atenolol, Propanolol, Taxel-1
The Caco-2 cells are cultured to confluency, trypsinized and seeded onto a filter transwell insert at a density of ^˜32,000 cells/well in DMEM cell culture medium. Cells are grown in a humidified atmosphere of 5% CO2 at 37° C. Following an overnight attachment period (24 h after seeding), the cell medium is replaced with fresh medium in both the apical and basolateral compartments every other day. The cell monolayers are used for transport studies 21 days post seeding after measuring the TEER values ([…]). The apical sides and basolateral sides are washed consecutively with HBSS 2.5% (v/v), HEPES (pH 7.4) or HBSS 2.5% (v/v), HEPES 10% (v/v), and Fetal Bovine Serum (pH 7.4) at 37° C. in an incubator under an atmosphere of 5% CO2.
Donor working solution is prepared by dilution of DMSO stock of test article or positive control with transport media to 10 μM.
For A→B directional transport, the donor working solution (with test article or positive control, with or without Pgp inhibitor) is added to the apical (A) compartment and the transport media as receiver working solution is added to the basolateral (B) compartment. For B→A directional transport, the donor working solution (with positive control or test article, with or without Pgp inhibitor) is added to the basolateral (B) compartment and transport media as receiver working solution is added to the apical (A) compartment.
The cells are incubated in a humidified atmosphere of 5% CO2 at 37° C. for 90 minutes.
At the end of the incubation, samples are taken from both donor and receiver compartments and transferred into 96-well assay plates containing internal standard solution (IS) in each well. After centrifugation, the supernatant solutions are transferred to clean 96 well plates and analyzed by LC-MS/MS. The MS detection is performed using a Sciex API 4000 instrument. Each compound is analyzed by reversed phase HPLC.
The parameters Papp (apparent permeability) and efflux ratio are calculated as follows:
Papp=(dQ/dt)×(1/C0)×(1/A)
Efflux ratio=Papp[B→A]/Papp[A→B]
where dQ/dt is the permeability rate, C0 is the initial concentration in the donor compartment, and A is the surface area of the cell monolayer (0.33 cm^2). The Papp value is a rate measured in cm/s. Calculated Papp is ranked as low (<[…]), moderate (1-10×10^−6 cm/s), and high (>[…]).
Comparing the efflux ratios generated in the presence and absence of a Pgp inhibitor identifies whether the test article is a Pgp substrate.
Recovery is calculated as follows:
% Recovery=(Total compound mass in donor and receiver compartments at the end of the incubation/Initial compound mass in the donor compartment)×100.

Take `CSCC[C@H](NC(=O)OCC1c2ccccc2-c2ccccc21)C(=O)NCCC(=O)OCn1ccc2c1c(=O)[nH]c(=S)n2CCOC(C)C.O=C(O)C(F)(F)F` [Example 21]: in “Plasma Stability”, the “human Plasma stability” value turned out to be 91% remaining. Further, the SGF in series [1] was 88% remaining. Moreover, the SIF in series [2] is recorded as 75% remaining. The Papp at 90 min, 10 µM in series [3] stood at 57.9 nm/s.
In the case of `CC(C)OCCn1c(=S)[nH]c(=O)c2c1ccn2COC(=O)CCCCNC(=O)[C@H](Cc1ccccc1)NC(=O)OCC1c2ccccc2-c2ccccc21.O=C(O)C(F)(F)F` [Example 22], the “human Plasma stability” value in the series “Plasma Stability” stood at 74% remaining. The SGF in series [1] is 87% remaining. Also, the SIF in series [2] is listed as 90% remaining. This compound showed a Papp at 90 min, 10 µM in series [3] of 6.47 nm/s.
Regarding `CC(C)OCCn1c(=S)[nH]c(=O)c2c1ccn2COC(=O)CCNC(=O)[C@H](Cc1ccccc1)NC(=O)OCC1c2ccccc2-c2ccccc21.O=C(O)C(F)(F)F` [Example 23], in the series “Plasma Stability”, the “human Plasma stability” value worked out at 92% remaining. Besides, the SGF in series [1] is given as 93% remaining. For the same compound, in series [2], the SIF was 84% remaining. The Papp at 90 min, 10 µM in series [3] stood at 19.4 nm/s.
In the same order, the values of `CC(C)OCCn1c(=S)[nH]c(=O)c2c1ccn2COC(=O)CCNC(=O)[C@@H](N)CCc1ccccc1.O=C(O)C(F)(F)F` [Example 25] are 96% remaining, 99% remaining, 43% remaining and 2.87 nm/s.
As for `CC(C)C[C@H](NC(=O)OC(C)(C)C)C(=O)NCCCCC(=O)OCn1ccc2c1c(=O)[nH]c(=S)n2CCOC(C)C` [Example 26], the “human Plasma stability” value in the series “Plasma Stability” was found to be 32% remaining. In addition, the SGF in series [1] is 99% remaining. In series [2], the SIF is listed as 66% remaining. Besides, the Papp at 90 min, 10 µM in series [3] was 127 nm/s.
On to `CC(C)C[C@H](NC(=O)OC(C)(C)C)C(=O)NCCC(=O)OCn1ccc2c1c(=O)[nH]c(=S)n2CCOC(C)C` [Example 27], for which the “human Plasma stability” value in “Plasma Stability” is reported as 91% remaining. Further, in series [1], the SGF was 92% remaining. Besides, in series [2], the SIF was 61% remaining. The compound further gave a Papp at 90 min, 10 µM in series [3] of 86.1 nm/s.
As for `CSCC[C@H](NC(=O)OC(C)(C)C)C(=O)NCCCCC(=O)OCn1ccc2c1c(=O)[nH]c(=S)n2CCOC(C)C` [Example 28], the “human Plasma stability” value in “Plasma Stability” stood at 62% remaining. Besides, the SGF in series [1] was 99% remaining. Besides, in series [2], the SIF was 75% remaining. For the same compound, the Papp at 90 min, 10 µM in series [3] was 67 nm/s.
In the case of `CSCC[C@H](NC(=O)OC(C)(C)C)C(=O)NCCC(=O)OCn1ccc2c1c(=O)[nH]c(=S)n2CCOC(C)C` [Example 29], in “Plasma Stability”, the “human Plasma stability” value was 98% remaining. In addition, the SGF in series [1] is 92% remaining. The SIF in series [2] is listed as 62% remaining. In addition, in series [3], the Papp at 90 min, 10 µM turned out to be 54.1 nm/s.
`CC(C)C[C@H](N)C(=O)NCCC(=O)OCn1ccc2c1c(=O)[nH]c(=S)n2CCOC(C)C.O=C(O)C(F)(F)F` [Example 30]: the “human Plasma stability” value in the series “Plasma Stability” worked out at 40% remaining. Further, the SGF in series [1] is on record as 93% remaining. In addition, in series [2], the SIF is 67% remaining. Also, the Papp at 90 min, 10 µM in series [3] was less than 2.69 nm/s.
In the same order, the values of `CSCC[C@H](N)C(=O)NCCCCC(=O)OCn1ccc2c1c(=O)[nH]c(=S)n2CCOC(C)C.O=C(O)C(F)(F)F` [Example 31] are 1% remaining, 94% remaining, 85% remaining and 3.25 nm/s.
For the compound `CC[C@H](C)[C@H](NC(=O)OC(C)(C)C)C(=O)NCCCCC(=O)OCn1ccc2c1c(=O)[nH]c(=S)n2CCOC(C)C` [Example 33], the “human Plasma stability” value in the series “Plasma Stability” is given as 53% remaining. Moreover, in series [1], the SGF was 90% remaining. In series [2], the SIF is 78% remaining. Moreover, the Papp at 90 min, 10 µM in series [3] is 94.7 nm/s.
As for `CC[C@H](C)[C@H](NC(=O)OC(C)(C)C)C(=O)NCCC(=O)OCn1ccc2c1c(=O)[nH]c(=S)n2CCOC(C)C` [Example 34], in “Plasma Stability”, the “human Plasma stability” value turned out to be 93% remaining. The SGF in series [1] is listed as 85% remaining. Also, in series [2], the SIF is 90% remaining. The compound further showed a Papp at 90 min, 10 µM in series [3] of 107 nm/s.
For `CC(C)OCCn1c(=S)[nH]c(=O)c2c1ccn2COC(=O)CCCCNC(=O)[C@@H](NC(=O)OC(C)(C)C)[C@@H](C)O.O=C(O)C(F)(F)F` [Example 35], the “human Plasma stability” value in the series “Plasma Stability” worked out at 30% remaining. Also, the SGF in series [1] is on record as 91% remaining. Also, the SIF in series [2] is 99% remaining. Also, the Papp at 90 min, 10 µM in series [3] was 19.1 nm/s.
With `CC(C)OCCn1c(=S)[nH]c(=O)c2c1ccn2COC(=O)CCNC(=O)[C@@H](NC(=O)OC(C)(C)C)[C@@H](C)O.O=C(O)C(F)(F)F` [Example 36], the “human Plasma stability” value in “Plasma Stability” is reported as 79% remaining. Also, the SGF in series [1] is reported as 95% remaining. Besides, the SIF in series [2] was 88% remaining. In addition, in series [3], the Papp at 90 min, 10 µM came to 8.35 nm/s.
For `CC[C@H](C)[C@H](N)C(=O)NCCCCC(=O)OCn1ccc2c1c(=O)[nH]c(=S)n2CCOC(C)C.O=C(O)C(F)(F)F` [Example 37] the same measures were 1% remaining, 88% remaining, 89% remaining and 10.9 nm/s.
With `CC[C@H](C)[C@H](N)C(=O)NCCC(=O)OCn1ccc2c1c(=O)[nH]c(=S)n2CCOC(C)C.O=C(O)C(F)(F)F` [Example 38], the “human Plasma stability” value in the series “Plasma Stability” turned out to be 65% remaining. In series [1], the SGF was 92% remaining. The SIF in series [2] is given as 84% remaining. In series [3], this compound gave a Papp at 90 min, 10 µM of 3.1 nm/s.
In the same order, the values of `CC(C)OCCn1c(=S)[nH]c(=O)c2c1ccn2COC(=O)CCCCNC(=O)[C@@H](N)[C@@H](C)O.O=C(O)C(F)(F)F` [Example 39] are 5% remaining, 91% remaining, 91% remaining and less than 1.96 nm/s.
Take `CC(C)OCCn1c(=S)[nH]c(=O)c2c1ccn2COC(=O)CCNC(=O)[C@@H](N)[C@@H](C)O.O=C(O)C(F)(F)F` [Example 40]: the “human Plasma stability” value in “Plasma Stability” is recorded as 88% remaining. The SGF in series [1] was 100%. Besides, the SIF in series [2] is 86% remaining. The same compound gave a Papp at 90 min, 10 µM in series [3] of less than 2.35 nm/s.
For the compound `CC(C)OCCn1c(=S)[nH]c(=O)c2c1ccn2COC(=O)CCCCNC(=O)[C@H](CO)NC(=O)OC(C)(C)C.O=C(O)C(F)(F)F` [Example 41], the “human Plasma stability” value in the series “Plasma Stability” was 21% remaining. In series [1], the SGF was 78% remaining. In addition, the SIF in series [2] was 87% remaining. Also, the Papp at 90 min, 10 µM in series [3] came to 11.5 nm/s.
On to `CC(C)OCCn1c(=S)[nH]c(=O)c2c1ccn2COC(=O)CCNC(=O)[C@H](CO)NC(=O)OC(C)(C)C.O=C(O)C(F)(F)F` [Example 42], for which the “human Plasma stability” value in “Plasma Stability” was determined as 51% remaining. For the same compound, the SGF in series [1] is 86% remaining. Moreover, in series [2], the SIF is 75% remaining. The Papp at 90 min, 10 µM in series [3] is 5.07 nm/s.
`CC(C)OCCn1c(=S)[nH]c(=O)c2c1ccn2COC(=O)CCCCNC(=O)[C@@H](N)CO.O=C(O)C(F)(F)F` [Example 43]: the “human Plasma stability” value in “Plasma Stability” was 16% remaining. In series [1], the SGF is reported as 92% remaining. The SIF in series [2] is 87% remaining. In series [3], this compound returned a Papp at 90 min, 10 µM of 1.47 nm/s.
